From patent publication US7897602B2, “Indolinone compounds as kinase inhibitors” (Development Center for Biotechnology, priority 2009, dated 2011)

Assays:
[1] = target: T1, PDGFR-β kinase (Homo sapiens, UniProt P09619); experiment: PDGFR-β kinase assay (33P incorporation into Poly(Glu-Tyr)); assay type: biochemical; conditions: 500 nM test compound
T1 construct: recombinant N-terminal 6×His-tagged PDGFR-β kinase domain construct expressed by baculovirus; 6xHis (N); made in house
Experimental: Inhibition of PDGFR-β kinase activity by compounds disclosed herein was quantified by measuring the amount of [^33P] incorporated into the substrate in the presence of a test compound. Briefly, a reaction mixture of 25 μL final volume containing 55 ng of PDGFR-β kinase (obtained by purifying recombinant N-terminal 6×His-tagged PDGFR-β kinase domain construct expressed by baculovirus), 2.5 μg of the substrate (Poly (Glu-Tyr, 4:1, Sigma)), kinase reaction buffer (20 mM MOPS pH 7.0, 1 mM EDTA, 5% glycerol, 0.01% Brij-35, 0.1% β-mercaptoethanol, 1 mg/mL BSA, 2 mM MnCl2, 30 μM ATP, 0.1 μCi per well [^33P]-γ-ATP (2,500-3,000 Ci/mmol)), and a test compound (500 nM, diluted with 4% DMSO) or DMSO (as the control) was incubated at 30° C. for 30 minutes. The reaction was stopped by adding 5 μL of 3% phosphoric acid solution. The resultant reaction solution was then harvested onto a filter plate (UniFilter-96 GF/B, PerkinElmer), washed 20 times for 5 min with d.d. H2O, and followed by the addition of 30 μL of MicroScint™-20 Cocktail (PerkinElmer). The plate was then sealed and counted using a TopCount scintillation detector (PerkinElmer). The percentage of inhibition rate of the test compound was calculated by dividing the retained radioactivity of the test sample with the retained radioactivity of the control sample and shown in Table 3.

[2] = target: T2, c-Met kinase (Homo sapiens, UniProt P08581); experiment: c-Met kinase assay (33P incorporation into Poly(Glu-Tyr)); assay type: biochemical; conditions: 500 nM test compound
T2 construct: recombinant N-terminal 6×His-tagged c-Met kinase domain construct expressed from baculovirus; 6xHis (N); made in house
Method in brief: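 Recombinant N-terminal 6×His-tagged c-Met kinase domain (baculovirus-expressed, 5 ng) acted on Poly(Glu-Tyr) 4:1 with 100 μM ATP plus [33P]-γ-ATP in MOPS pH 7.0 buffer, 30 min at 30° C. Compound was at 500 nM. Filter-retained radioactivity was compared with the DMSO control to give percent inhibition.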

T1 sequence (P09619 600-962 limits assumed): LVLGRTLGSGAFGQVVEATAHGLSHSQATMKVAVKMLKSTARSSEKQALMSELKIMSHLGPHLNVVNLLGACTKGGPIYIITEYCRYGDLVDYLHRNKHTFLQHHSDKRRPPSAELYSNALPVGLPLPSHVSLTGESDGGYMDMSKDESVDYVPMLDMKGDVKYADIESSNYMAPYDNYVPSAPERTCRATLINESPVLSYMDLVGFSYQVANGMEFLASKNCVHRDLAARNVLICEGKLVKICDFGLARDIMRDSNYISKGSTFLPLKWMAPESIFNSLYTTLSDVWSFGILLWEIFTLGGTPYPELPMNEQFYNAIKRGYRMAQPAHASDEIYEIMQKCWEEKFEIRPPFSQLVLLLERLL
T2 sequence (P08581 1078-1345 limits assumed): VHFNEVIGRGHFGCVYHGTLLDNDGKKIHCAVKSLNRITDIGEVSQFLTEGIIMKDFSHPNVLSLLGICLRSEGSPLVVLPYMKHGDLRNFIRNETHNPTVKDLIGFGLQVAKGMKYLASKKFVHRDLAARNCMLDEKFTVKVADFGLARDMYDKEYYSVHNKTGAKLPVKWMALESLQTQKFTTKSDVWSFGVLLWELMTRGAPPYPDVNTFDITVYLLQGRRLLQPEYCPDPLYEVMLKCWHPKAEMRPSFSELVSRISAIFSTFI

Row | inhibition at 0.5 µM [1] | inhibition at 0.5 µM [2] | Inhibition at 500 nM (%) c-Met ([2]; 0.5 µM) | Compound
1 | 54% | 26% |  | CCOC(=O)CCc1c(/C=C2\C(=O)Nc3ccccc32)[nH]c2c1C(=O)CCC2 [DCB-70049, (Z)-3-((3-(3-ethoxy-3-oxopropyl)-4-oxo-4,5,6,7-tetrahydro-1H-indol-2-yl)methylene)indolin-2-one]
2 | 54.8% | 14.3% |  | O=C(O)CCc1c(/C=C2\C(=O)Nc3ccccc32)[nH]c2c1C(=O)CCC2 [DCB-70052, (Z)-3-((3-carboxyethyl-4-oxo-4,5,6,7-tetrahydro-1H-indol-2-yl)methylene)indolin-2-one]
3 | 82.3% |  | 17.4% | CCOC(=O)CCc1c(/C=C2\C(=O)Nc3ccc(F)cc32)[nH]c2c1C(=O)CCC2 [DCB-70053, (Z)-5-fluoro-3-((3-(3-ethoxy-3-oxopropyl)-4-oxo-4,5,6,7-tetrahydro-1H-indol-2-yl)methylene)indolin-2-one]
4 | 84.1% | 30.9% |  | CCOC(=O)CCc1c(/C=C2\C(=O)Nc3ccc(Br)cc32)[nH]c2c1C(=O)CCC2 [DCB-70056, (Z)-5-bromo-3-((3-(3-ethoxy-3-oxopropyl)-4-oxo-4,5,6,7-tetrahydro-1H-indol-2-yl)methylene)indolin-2-one]
5 | 89.3% | 19.3% |  | O=C(O)CCc1c(/C=C2\C(=O)Nc3ccc(Br)cc32)[nH]c2c1C(=O)CCC2 [DCB-70057, (Z)-5-bromo-3-((3-carboxyethyl-4-oxo-4,5,6,7-tetrahydro-1H-indol-2-yl)methylene)indolin-2-one]
6 | 30.5% | 9.7% |  | CCOC(=O)CCc1c(/C=C2\C(=O)Nc3ccc(-c4ccc(O)c(OC)c4)cc32)[nH]c2c1C(=O)CCC2 [DCB-70058, (Z)-5-(4-hydroxyl-3-methoxyphenyl)-3-((3-(3-ethoxy-3-oxopropyl)-4-oxo-4,5,6,7-tetrahydro-1H-indol-2-yl)methylene)indolin-2-one]
7 | 38.3% | 16.3% |  | COc1cc(-c2ccc3c(c2)/C(=C/c2[nH]c4c(c2CCC(=O)O)C(=O)CCC4)C(=O)N3)ccc1O [DCB-70059, (Z)-5-(4-hydroxyl-3-methoxyphenyl)-3-((3-carboxyethyl-4-oxo-4,5,6,7-tetrahydro-1H-indol-2-yl)methylene)indolin-2-one]
8 | 67.5% | 34.1% |  | CCOC(=O)CCc1c(/C=C2\C(=O)Nc3ccc([N+](=O)[O-])cc32)[nH]c2c1C(=O)CCC2 [DCB-70062, (Z)-5-nitro-3-((3-(3-ethoxy-3-oxopropyl)-4-oxo-4,5,6,7-tetrahydro-1H-indol-2-yl)methylene)indolin-2-one]
9 | 79.7% | 19.9% |  | O=C(O)CCc1c(/C=C2\C(=O)Nc3ccc([N+](=O)[O-])cc32)[nH]c2c1C(=O)CCC2 [DCB-70063, (Z)-5-nitro-3-((3-carboxyethyl-4-oxo-4,5,6,7-tetrahydro-1H-indol-2-yl)methylene)indolin-2-one]
10 | 56.7% | 48.1% |  | CCOC(=O)CCc1c(/C=C2\C(=O)Nc3ccc(S(=O)(=O)NC)cc32)[nH]c2c1C(=O)CCC2 [DCB-70064, (Z)-5-(N-methylsulfamoyl)-3-((3-(3-ethoxy-3-oxopropyl)-4-oxo-4,5,6,7-tetrahydro-1H-indol-2-yl)methylene)indolin-2-one]
11 | 17.3% | 29.1% |  | CNS(=O)(=O)c1ccc2c(c1)/C(=C/c1[nH]c3c(c1CCC(=O)O)C(=O)CCC3)C(=O)N2 [DCB-70065, (Z)-5-(N-methylsulfamoyl)-3-((3-carboxyethyl-4-oxo-4,5,6,7-tetrahydro-1H-indol-2-yl)methylene)indolin-2-one]
12 | 85.4% | 15.2% |  | CCOC(=O)CCc1c(/C=C2\C(=O)Nc3cc(-c4ccc(O)cc4)ccc32)[nH]c2c1C(=O)CCC2 [DCB-70066, (Z)-6-(4-hydroxyphenyl)-3-((3-(3-ethoxy-3-oxopropyl)-4-oxo-4,5,6,7-tetrahydro-1H-indol-2-yl)methylene)indolin-2-one]
13 | 22% | 17% |  | CCOC(=O)CCc1c(/C=C2\C(=O)Nc3ccc(-c4ccc(OC)c(OC)c4)cc32)[nH]c2c1C(=O)CCC2 [DCB-70067, (Z)-5-(3,4-dimethoxyphenyl)-3-((3-(3-ethoxy-3-oxopropyl)-4-oxo-4,5,6,7-tetrahydro-1H-indol-2-yl)methylene)indolin-2-one]
14 | 20.6% | 18% |  | COc1ccc(-c2ccc3c(c2)/C(=C/c2[nH]c4c(c2CCC(=O)O)C(=O)CCC4)C(=O)N3)cc1OC [DCB-70068, (Z)-5-(3,4-dimethoxyphenyl)-3-((3-carboxyethyl-4-oxo-4,5,6,7-tetrahydro-1H-indol-2-yl)methylene)indolin-2-one]
15 | 6.8% | -38% |  | CCOC(=O)CCc1c(/C=C2\C(=O)Nc3ccc(-c4cc5ccccc5s4)cc32)[nH]c2c1C(=O)CCC2 [DCB-70069, (Z)-5-(benzo[b]thiophen-2-yl)-3-((3-(3-ethoxy-3-oxopropyl)-4-oxo-4,5,6,7-tetrahydro-1H-indol-2-yl)methylene)indolin-2-one]
16 | 18.7% | 19.7% |  | O=C(O)CCc1c(/C=C2\C(=O)Nc3ccc(-c4cc5ccccc5s4)cc32)[nH]c2c1C(=O)CCC2 [DCB-70070, (Z)-5-(benzo[b]thiophen-2-yl)-3-((3-carboxyethyl-4-oxo-4,5,6,7-tetrahydro-1H-indol-2-yl)methylene)indolin-2-one]
17 | 43.1% | 65.3% |  | O=C(O)CCc1c(/C=C2\C(=O)Nc3ccc(S(=O)(=O)Cc4ccccc4)cc32)[nH]c2c1C(=O)CCC2 [DCB-70071, (Z)-5-benzylsulfonyl-3-((3-carboxyethyl-4-oxo-4,5,6,7-tetrahydro-1H-indol-2-yl)methylene)indolin-2-one]
18 | 34.5% | 62.8% |  | O=C(O)CCc1c(/C=C2\C(=O)Nc3ccc(S(=O)(=O)Cc4ccc(F)cc4)cc32)[nH]c2c1C(=O)CCC2 [DCB-70072, (Z)-5-(4-fluorobenzylsulfonyl)-3-((3-carboxyethyl-4-oxo-4,5,6,7-tetrahydro-1H-indol-2-yl)methylene)indolin-2-one]
19 | 29.3% | 91.6% |  | O=C(O)CCc1c(/C=C2\C(=O)Nc3ccc(S(=O)(=O)Cc4c(Cl)cccc4Cl)cc32)[nH]c2c1C(=O)CCC2 [DCB-70073, (Z)-5-(2,6-dichlorobenzylsulfonyl)-3-((3-carboxyethyl-4-oxo-4,5,6,7-tetrahydro-1H-indol-2-yl)methylene)indolin-2-one]
20 | 6.6% | 21.5% |  | CCOC(=O)CCc1c(/C=C2\C(=O)Nc3ccc(NC(=O)c4ccc(F)cc4)cc32)[nH]c2c1C(=O)CCC2 [DCB-70074, (Z)-5-(4-fluorobenzamido)-3-((3-(3-ethoxy-3-oxopropyl)-4-oxo-4,5,6,7-tetrahydro-1H-indol-2-yl)methylene)indolin-2-one]
21 | 94.1% | 21.8% |  | O=C(O)CCc1c(/C=C2\C(=O)Nc3cc(-c4ccc(O)cc4)ccc32)[nH]c2c1C(=O)CCC2 [DCB-70075, (Z)-6-(4-hydroxyphenyl)-3-((3-carboxyethyl-4-oxo-4,5,6,7-tetrahydro-1H-indol-2-yl)methylene)indolin-2-one]
22 | 26.9% | 21.8% |  | O=C(O)CCc1c(/C=C2\C(=O)Nc3ccc(NC(=O)c4ccc(F)cc4)cc32)[nH]c2c1C(=O)CCC2 [DCB-70076, (Z)-5-(4-fluorobenzamido)-3-((3-carboxyethyl-4-oxo-4,5,6,7-tetrahydro-1H-indol-2-yl)methylene)indolin-2-one]
23 | 66.3% | 4.1% |  | CCOC(=O)CCc1c(/C=C2\C(=O)Nc3cc(-c4ccc(O)c(O)c4)ccc32)[nH]c2c1C(=O)CCC2 [DCB-70077, (Z)-6-(3,4-dihydroxyphenyl)-3-((3-(3-ethoxy-3-oxopropyl)-4-oxo-4,5,6,7-tetrahydro-1H-indol-2-yl)methylene)indolin-2-one]
24 | 85% | -54.1% |  | O=C(O)CCc1c(/C=C2\C(=O)Nc3cc(-c4ccc(O)c(O)c4)ccc32)[nH]c2c1C(=O)CCC2 [DCB-70078, (Z)-6-(3,4-dihydroxyphenyl)-3-((3-carboxyethyl-4-oxo-4,5,6,7-tetrahydro-1H-indol-2-yl)methylene)indolin-2-one]
25 | 9.6% | 21.4% |  | CCOC(=O)CCc1c(/C=C2\C(=O)Nc3cc(-c4cc5ccccc5s4)ccc32)[nH]c2c1C(=O)CCC2 [DCB-70079, (Z)-6-(benzo[b]thiophen-2-yl)-3-((3-(3-ethoxy-3-oxopropyl)-4-oxo-4,5,6,7-tetrahydro-1H-indol-2-yl)methylene)indolin-2-one]
